Assay results: paper PMC8882856, “The affinity and selectivity of α‐adrenoceptor antagonists, antidepressants and antipsychotics for the human α2A, α2B, and α2C‐adrenoceptors and comparison with human α1 and β‐adrenoceptors” (Pharmacology Research & Perspectives, 2022)
Like-named read-outs stand apart in the source and are kept apart here.

Tests used:
human α2C‐adrenoceptor [1] = target: T1, human α2C‐adrenoceptor (Homo sapiens, UniProt P18825); experiment: cell-based
T1 sequence (P18825 1-462): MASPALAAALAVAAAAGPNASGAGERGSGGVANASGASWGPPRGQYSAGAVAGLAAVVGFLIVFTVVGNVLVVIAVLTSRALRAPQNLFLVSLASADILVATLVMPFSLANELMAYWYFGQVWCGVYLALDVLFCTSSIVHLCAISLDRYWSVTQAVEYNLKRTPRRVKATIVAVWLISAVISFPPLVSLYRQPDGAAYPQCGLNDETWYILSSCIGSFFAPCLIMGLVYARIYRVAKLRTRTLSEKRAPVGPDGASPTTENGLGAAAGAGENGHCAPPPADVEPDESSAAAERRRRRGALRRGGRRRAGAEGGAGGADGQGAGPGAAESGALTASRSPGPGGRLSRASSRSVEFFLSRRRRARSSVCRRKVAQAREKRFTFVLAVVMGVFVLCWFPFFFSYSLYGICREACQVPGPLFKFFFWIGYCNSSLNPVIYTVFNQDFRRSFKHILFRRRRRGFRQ

human α2C‐adrenoceptor [2] = target: T1, human α2C‐adrenoceptor; experiment: ^3H‐rauwolscine whole cell competition binding, CHO‐α2C cells; conditions: for Selectivity ratio α2A vs α2C (higher affinity for α2C) / Selectivity ratio α2B vs α2C (higher affinity for α2C): ratio of KD values
human β2‐adrenoceptor = human β2‐adrenoceptor (Homo sapiens, UniProt P07550); type: binding; conditions: for IC50: ^3H‐CGP12177, log value, read-out: IC50 (log) β2, IC50>top concentration used (converted)
Chain of human β2‐adrenoceptor (P07550 whole entry): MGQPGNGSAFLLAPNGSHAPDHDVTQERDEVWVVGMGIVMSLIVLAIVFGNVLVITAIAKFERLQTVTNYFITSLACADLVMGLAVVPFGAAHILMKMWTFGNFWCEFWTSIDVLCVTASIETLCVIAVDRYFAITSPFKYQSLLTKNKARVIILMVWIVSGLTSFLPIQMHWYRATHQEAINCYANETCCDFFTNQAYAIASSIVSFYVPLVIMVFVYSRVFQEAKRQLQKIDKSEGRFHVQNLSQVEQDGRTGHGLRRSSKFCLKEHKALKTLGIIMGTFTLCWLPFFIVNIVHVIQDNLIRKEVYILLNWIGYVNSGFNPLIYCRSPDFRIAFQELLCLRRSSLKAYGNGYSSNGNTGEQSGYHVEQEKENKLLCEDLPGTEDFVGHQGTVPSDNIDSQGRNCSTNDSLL

human α2B‐adrenoceptor [3] = target: T2, human α2B‐adrenoceptor (Homo sapiens, UniProt P18089); experiment: ^3H‐rauwolscine whole cell competition binding, CHO‐α2B cells; conditions: for Selectivity ratio α2A vs α2B (higher affinity for α2B) / Selectivity ratio α2B vs α2C (higher affinity for α2B): ratio of KD values
T2 sequence (P18089 1-450): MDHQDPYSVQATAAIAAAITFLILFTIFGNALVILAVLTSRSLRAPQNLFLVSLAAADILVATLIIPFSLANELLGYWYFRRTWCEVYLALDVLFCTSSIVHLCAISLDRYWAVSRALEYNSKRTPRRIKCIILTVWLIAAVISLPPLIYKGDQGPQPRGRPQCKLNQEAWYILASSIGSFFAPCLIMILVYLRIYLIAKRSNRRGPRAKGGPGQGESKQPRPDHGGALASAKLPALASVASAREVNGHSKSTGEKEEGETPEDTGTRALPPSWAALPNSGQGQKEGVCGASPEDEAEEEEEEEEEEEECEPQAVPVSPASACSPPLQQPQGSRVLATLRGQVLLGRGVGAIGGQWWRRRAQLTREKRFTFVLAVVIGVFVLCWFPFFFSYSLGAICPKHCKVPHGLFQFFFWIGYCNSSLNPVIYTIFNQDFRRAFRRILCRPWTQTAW

human β1‐adrenoceptor [4] = target: T3, human β1‐adrenoceptor (Homo sapiens, UniProt P08588); experiment: cell-based
T3 sequence (P08588 whole entry): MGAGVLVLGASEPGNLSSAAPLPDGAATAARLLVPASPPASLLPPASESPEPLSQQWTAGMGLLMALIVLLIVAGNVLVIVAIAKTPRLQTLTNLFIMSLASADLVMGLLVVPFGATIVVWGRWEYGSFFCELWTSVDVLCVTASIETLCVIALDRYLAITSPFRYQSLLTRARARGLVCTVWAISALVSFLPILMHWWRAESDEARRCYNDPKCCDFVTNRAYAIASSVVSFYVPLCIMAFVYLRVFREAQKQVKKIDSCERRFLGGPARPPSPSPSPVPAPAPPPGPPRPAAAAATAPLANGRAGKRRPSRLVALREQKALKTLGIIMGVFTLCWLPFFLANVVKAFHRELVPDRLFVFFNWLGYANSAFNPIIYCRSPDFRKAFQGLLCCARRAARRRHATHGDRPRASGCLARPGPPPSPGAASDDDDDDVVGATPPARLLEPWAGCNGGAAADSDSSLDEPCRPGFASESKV

human α2B‐adrenoceptor [5] = target: T2, human α2B‐adrenoceptor; experiment: cell-based
human α2A‐adrenoceptor [6] = target: T4, human α2A‐adrenoceptor (Homo sapiens, UniProt P08913); experiment: cell-based
T4 sequence (P08913 1-465): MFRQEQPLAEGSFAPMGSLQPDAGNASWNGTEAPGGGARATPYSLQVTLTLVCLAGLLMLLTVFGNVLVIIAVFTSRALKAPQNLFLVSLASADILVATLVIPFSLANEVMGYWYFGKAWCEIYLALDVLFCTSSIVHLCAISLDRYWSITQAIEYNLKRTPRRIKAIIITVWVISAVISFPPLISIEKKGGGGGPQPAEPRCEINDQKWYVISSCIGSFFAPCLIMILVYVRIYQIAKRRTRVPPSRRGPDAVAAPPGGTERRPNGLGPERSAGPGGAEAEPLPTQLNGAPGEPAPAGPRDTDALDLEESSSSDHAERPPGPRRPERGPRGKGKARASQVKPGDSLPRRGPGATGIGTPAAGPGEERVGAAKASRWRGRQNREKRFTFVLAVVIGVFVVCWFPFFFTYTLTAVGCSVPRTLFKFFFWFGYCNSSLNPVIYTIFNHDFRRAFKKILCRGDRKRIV

human α2A‐adrenoceptors = conditions: cited from earlier work
human α1A‐adrenoceptor = target: human α1A‐adrenoceptor; set-up: method as in PMID 32608144; conditions: identical whole cell method; ref [33]; read-out: α1A‐adrenoceptor affinity; cited from earlier work
human β1‐adrenoceptor [7] = target: T3, human β1‐adrenoceptor; conditions: mean ± s.e.mean
human α2A‐adrenoceptor [8] = target: T4, human α2A‐adrenoceptor; experiment: ^3H‐rauwolscine whole cell competition binding, CHO‐α2A cells; conditions: ratio of KD values
[9] = ^3H‐CGP12177 whole cell binding, log values, mean ± s.e.mean, ^app = apparent KD, 'no binding to' = log top concentration, read-out: Log KD β2 (converted)
[10] = this study, read-out: β2‐adrenoceptor affinity

Compound | Kd (human α2C‐adrenoceptor [1]) | Selectivity ratio α2A vs α2C (higher affinity for α2C) (human α2C‐adrenoceptor [2]) | Selectivity ratio α2B vs α2C (higher affinity for α2C) (human α2C‐adrenoceptor [2]) | IC50 (human β2‐adrenoceptor) | Selectivity ratio α2A vs α2B (higher affinity for α2B) (human α2B‐adrenoceptor [3]) | IC50 (human β1‐adrenoceptor [4]) | Kd (human α2B‐adrenoceptor [5]) | Kd (human α2A‐adrenoceptor [6]) | other results
OCCN1CCN(CCC=C2c3ccccc3Sc3ccc(C(F)(F)F)cc32)CC1 [flupenthixol] | 132 nM | 6.0 | 4.0 | > 10 µM | 1.5 | > 10 µM | 525 nM | 794 nM | –
CCn1ccnc1CC1COc2ccccc2O1 (centres unmarked) [imiloxan] | 537 nM | 2.5 | – | – | 4.0 | ~1000 µM | 331 nM | 1320 nM | Log KD β2 (human β2‐adrenoceptor; ^3H‐CGP12177 whole cell binding, log values, mean ± s.e.mean, ^app = apparent KD, 'no binding to' = log top concentration): no binding to −3; Log KD β2 (human β2‐adrenoceptor; given as log KD (negative values), 3H-CGP12177 whole cell binding, CHO cells, mean ± s.e.mean): no binding -3; Selectivity ratio α2B vs α2C (higher affinity for α2B) (human α2B‐adrenoceptor [3]): 1.6
O=C(NC1CCN(CCc2c[nH]c3ccccc23)CC1)c1ccccc1 [indoramin] | 1580 nM | 4.7 | 2.2 | – | 2.1 | – | 3470 nM | 7410 nM | Kd (human β2‐adrenoceptor; [9]): 5370 nM; Kd (human β1‐adrenoceptor [4]): 18.6 µM
CN(CCCN1c2ccccc2CCc2ccccc21)CC(=O)c1ccc(Cl)cc1 [lofepramine] | 5250 nM | 2.6 | – | > 100 µM | 5.5 | > 100 µM | 2510 nM | 13800 nM | Selectivity ratio α2B vs α2C (higher affinity for α2B) (human α2B‐adrenoceptor [3]): 2.1
CN1CCN2c3ncccc3Cc3ccccc3C2C1 (centres unmarked) [mirtazepine] | – | – | – | – | – | – | – | – | Kd (human α2A‐adrenoceptors; ref [51], read-out: affinity at human α2A receptors): 79 to 126 nM
COc1cc2nc(N3CCN(C(=O)c4ccco4)CC3)nc(N)c2cc1OC [prazosin] | – | – | – | – | – | – | – | – | Kd (human β2‐adrenoceptor; [9]): 7940 nM; Kd (human α2A‐adrenoceptors; ref [6], read-out: affinity at human α2A‐adrenoceptors): 16000 nM; Kd (human α2A‐adrenoceptors; ref [21], [28], read-out: affinity at human α2A‐adrenoceptors): 300 nM; Log KD β1 (human β1‐adrenoceptor [7]; ^3H‐CGP12177 whole cell binding, log values, ^app = apparent KD, 'no binding to' = log top concentration): No binding to −4; Log KD β1 (human β1‐adrenoceptor [7]; given as log KD (negative values), 3H-CGP12177 whole cell binding, CHO cells): No binding to -4
C[C@H](Cc1cc2c(c(C(N)=O)c1)N(CCCO)CC2)NCCOc1ccccc1OCC(F)(F)F [silodosin] | 759 nM | – | – | – | – | > 10 µM | – | 3240 nM | Kd (human α1A‐adrenoceptor): 0.25 nM; Kd (human β2‐adrenoceptor; [10]): ~30 nM; IC50 (human α2B‐adrenoceptor [3]): > 10 µM

Further lines, with some results ahead:

Kd (human α2C‐adrenoceptor [1]) | Selectivity ratio α2A vs α2C (higher affinity for α2C) (human α2C‐adrenoceptor [2]) | Selectivity ratio α2B vs α2C (higher affinity for α2C) (human α2C‐adrenoceptor [2]) | IC50 (human β2‐adrenoceptor) | Selectivity ratio α2A vs α2B (higher affinity for α2B) (human α2B‐adrenoceptor [3]) | IC50 (human β1‐adrenoceptor [4]) | Kd (human α2B‐adrenoceptor [5]) | Kd (human α2A‐adrenoceptor [6]) | Compound | other results
– | – | – | > 31.6 µM | – | > 31.6 µM | – | – | Cc1nc2n(c(=O)c1CCN1CCC(c3noc4cc(F)ccc34)CC1)CCCC2O (centres unmarked) [paliperidone] | Kd (human α1A‐adrenoceptor): 4 nM; Kd (human α2C‐adrenoceptor [2]): 14 nM
7.76 nM | 6.8 | 28.8 | > 1000 µM | – | > 1000 µM | 224 nM | 52.5 nM | O=C1CCC(=O)N1C[C@H]1CC[C@H]2CN(c3ncccn3)CCN2C1 [sunepitron] | Selectivity ratio α2A vs α2B (higher affinity for α2A) (human α2A‐adrenoceptor [8]): 4.3
1450 nM | 1.6 | 3.3 | – | – | – | 4790 nM | 2340 nM | Cc1ccc(Sc2ccccc2N2CCNCC2)c(C)c1 [vortioxetine] | Kd (human β2‐adrenoceptor; [10]): 178 nM; Kd (human β1‐adrenoceptor [4]): 0.427 µM; Selectivity ratio α2A vs α2B (higher affinity for α2A) (human α2A‐adrenoceptor [8]): 2.0
